Structures can show the parent of a compound that is named as a salt.
What was measured:
CCR1 receptor = target: T1, CCR1 receptor (Homo sapiens, UniProt P32246); assay: In vitro Ca2+-flux assay on human monocytes (THP-1 cells stimulated with MIP-1α); type: cell-based; conditions: block of MIP-1α mediated Ca2+ mobilisation in THP-1 cells; Fluo-4
T1 construct: host or cells: THP-1
T1 sequence (P32246 1-355): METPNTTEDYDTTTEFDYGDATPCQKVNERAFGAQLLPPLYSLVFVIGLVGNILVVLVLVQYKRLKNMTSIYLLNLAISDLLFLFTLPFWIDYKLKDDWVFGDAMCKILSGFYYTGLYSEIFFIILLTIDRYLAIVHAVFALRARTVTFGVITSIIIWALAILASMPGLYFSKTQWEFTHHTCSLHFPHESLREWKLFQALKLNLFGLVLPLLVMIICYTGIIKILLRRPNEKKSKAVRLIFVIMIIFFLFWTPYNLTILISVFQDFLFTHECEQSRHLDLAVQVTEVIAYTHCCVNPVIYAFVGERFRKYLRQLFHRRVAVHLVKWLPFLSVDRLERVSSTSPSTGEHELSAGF
Experimental: The binding of Mip-1α at the CCR1 receptor leads to an increase of intracellular calcium levels. The ability of the compounds of the invention to block this biologic response of the CCR1 receptor is determined in the Ca^2+-flux assay.
In vitro Ca^2+-Flux Assay on Human Monocytes
• 1. Cell Culture: • a) THP-1 (ATCC Cat# TIB202) • b) Tissue culture medium: RPMI 1640 with Ultraglutamine 1 supplemented with 10% (v/v) foetal calf serum. This medium is hereinafter referred to as “growth medium”. • 2. Assay buffer: HMSS (Hanks' balanced salts solution), 20 mM HEPES, 1 mM CaCl2, 1 mM MgCl2, 2.5 mM Probenecid, pH 7.4. • 3. Fluo-4AM (Molecular Probes Cat # F14201) • 4. Pluronic® F-127 (Molecular Probes Cat # P-6867) • 5. The compounds of the invention were dissolved in DMSO. A serial dilution was made and nine concentrations of each compound were screened to generate a dose curve from which the IC50 value was determined. • 6. MIP-1α (Peprotech EC Ltd Cat # 300-08) • 7. Victor^2 1420 (Perkin Elmer) • 8. Microlite™ ^2+ (Dynex Cat # 7572) Assay Procedure:
THP-1 cells were grown in T-75 cm^2 flasks in growth medium at 37° C. in 5% CO2. The cells were harvested by centrifugation and resuspended in assay buffer. The cells were then loaded with 5 μM Fluo-4 and 0.02% pluronic acid (final concentrations) at 37° C. in 5% CO2 for 30 min. The excess dye was removed by washing with assay buffer. The cells were resuspended and 10^5 cells/well were added in a Microlite plate containing compounds and then incubated for 15 minutes at 37° C. in 5% CO2. The cells were then stimulated with MIP-1α and changes in intracellular free Ca^2+ concentration were measured with a Victor^2.

[1] = target: T2, cloned human CCR1 Chemokine receptor (Homo sapiens, UniProt P32246); assay: In vitro competitive affinity binding assay (displacement of 125I-MIP-1α); conditions: displacement of 125I-MIP-1α from cloned human CCR1 expressed in CHO cells, coated on FlashPlate; 1 hour, ambient temperature
T2 construct: purchased Perkin Elmer 6120525; host or cells: CHO cells
T2 sequence (P32246 1-355): T1 sequence (P32246 1-355)
Text: In the competitive affinity binding assay, the binding affinity of the compounds for the CCR1 receptor can be determined by measuring their ability to displace ^125I-Mip-1α from the CCR1 receptor.
In vitro Competitive Affinity Binding Assay
• 1. Screen Ready™ Targets: cloned human CCR1 Chemokine receptor, expressed in CHO cells, coated on 96-well FlashPlate® (Perkin Elmer Cat #6120525) • 2. Ligand: ^125I-MIP-1α from Perkin Elmer (specific activity is 2200 Ci/mmol) was reconstituted to 25 μCi/L in H2O. • 3. Assay buffer: 50 mM HEPES, 1 mM CaCl2, 5 mM MgCl2, 0.2% BSA, pH 7.4. • 4. MIP-1α (Peprotech EC Ltd Cat # 300-08) • 5. The compounds of the invention were dissolved in DMSO. A serial dilution was made and ten concentrations of each compound were screened to generate a dose curve from which the IC50 value was determined. Assay Procedure:
Membranes coated on the FlashPlate® were incubated with ^125I-MIP-1α in the presence and absence of different concentrations of compounds at ambient temperature for 1 hour. The radioactivity in each well was determined in a microplate scintillation counter, The non-specific binding was defined by binding in the presence of 1250-fold unlabeled MIP-1α. The assay was performed according to the manufacturer's instruction of Screen Ready™ Targets.

[2] = In vivo bioavailability in the mouse (cassette dosing, i.v. or oral); conditions: female mice (SJL/N Tac), nominal dose 1 mg/kg/compound; for half-life / clearance: mouse; for half-life: plasma half-life; for clearance: plasma; for F: oral bioavailability, F=(AUCinf,po/AUCinf,iv)·(Doseiv/Dosepo)
Experimental: Female mice (SJL/N Tac) were given a single intravenous or oral dose of a mixture of 5 or 6 compounds per cassette (nominal dose: 1 mg/kg/compound) in a solution containing 0.5% N,N′-dimethylacetamide (DMA) and 15% sulfobutyl ether β-cyclodextrin (Captisol®). Blood samples were taken from one mouse per time point and dose group until 24 hour after respective administration. The dose formulations and plasma concentrations of each compound were determined by LC-MS/MS. The pharmacokinetic parameters were determined by non-compartmental analysis using WinNonlin Professional (version 4.0.1). The elimination rate constant, λ, was estimated by linear regression analysis of the terminal slope of the logarithmic plasma concentration-time curve. The area under the plasma concentration-time curve, AUC0-t, was calculated by using the linear/logarithmic trapezoidal rule. The AUCinf was calculated with the residual area estimated as Cz/λ. The calculated plasma concentration at the last time point, Cz, was obtained from the regression equation. The oral bioavailability (F) was calculated as: Foral=(AUCinf,po/AUCinf,iv)·Doseiv/Dosepo). Pharmacodynamic Assays

| IC50 (CCR1 receptor) [nM] | IC50 [1] [nM] | half-life [2] [h] | clearance [2] [mL/min/kg] | F [2] [%] | SMILES |
| --- | --- | --- | --- | --- | --- |
| 9 | 14 | 5.3 | 80 | 62 | C[C@@H]1CN(C(=O)/C=C/c2ccc(Cl)cc2)[C@@H](C)CN1Cc1ccc(F)cc1 (racemic) [Compound 6.1, (E)-(trans)-3-(4-Chloro-phenyl)-1-[4-(4-fluoro-benzyl)-2,5-dimethyl-piperazine-1-yl]-prop-2-en-1-one] |
| 4 | 21 |  |  |  | C[C@@H]1CN(C(=O)/C=C/c2ccc(Cl)c([N+](=O)[O-])c2)[C@@H](C)CN1Cc1ccc(F)cc1 (racemic) [Compound 6.2, (E)-(trans)-3-(4-Chloro-3-nitro-phenyl)-1-[4-(4-fluoro-benzyl)-2,5-dimethyl-piperazne-1-yl]-prop-2-en-1-one] |
| 207 | > 1000 |  |  |  | C[C@@H]1CN(C(=O)/C=C\c2ccc(Cl)cc2)[C@@H](C)CN1Cc1ccc(F)cc1 (racemic) [Compound 8.1, (Z)-(trans)-3-(4-Chloro-phenyl)-1-[4-(4-fluoro-benzyl)-2,5-dimethyl-piperazine-1-yl]-prop-2-en-1-one, reference compound] |
| 910 |  |  |  |  | C[C@H]1CN(C(=O)/C=C/c2ccc(Cl)cc2)[C@@H](C)CN1Cc1ccc(F)cc1 (racemic) [Compound 9.1, (E)-(cis)-3-(4-Chloro-phenyl)-1-[4-(4-fluoro-benzyl)-2,5-dimethyl-piperazine-1-yl]-prop-2-en-1-one, reference compound] |

The remaining lines, values behind:

| SMILES | IC50 (CCR1 receptor) [nM] | IC50 [1] [nM] | half-life [2] [h] | clearance [2] [mL/min/kg] | F [2] [%] |
| --- | --- | --- | --- | --- | --- |
| C[C@@H]1CN(C(=O)/C=C/c2ccc(Cl)c([N+](=O)[O-])c2)[C@@H](C)CN1Cc1ccc(Cl)cc1 (racemic) [Compound 5.2, (E)-(trans)-3-(4-Chloro-3-nitro-phenyl)-1-[4-(4-chloro-benzyl)-2,5-dimethyl-piperazine-1-yl]-prop-2-en-1-one] | 6 | 39 |  |  |  |
| C[C@@H]1CN(C(=O)/C=C/c2ccc([N+](=O)[O-])cc2)[C@@H](C)CN1Cc1ccc(F)cc1 (racemic) [Compound 5.5, (E)-(trans)-1-[4-(4-Fluoro-benzyl)-2,5-dimethyl-piperazine-1-yl]-3-(4-nitro-phenyl)-prop-2-en-1-one] | 23 | 33 |  |  |  |
| C[C@@H]1CN(C(=O)/C=C/c2ccc(Cl)cc2Cl)[C@@H](C)CN1Cc1ccc(F)cc1 (racemic) [Compound 5.6, (E)-(trans)-3-(2,4-Dichloro-phenyl)-]-[4-(4-fluoro-benzyl)-2,5-dimethyl-piperazine-1-yl]-prop-2-en-1-one hydrochloride] | 18 |  |  |  |  |
| C[C@@H]1CN(C(=O)/C=C/c2ccc3nonc3c2)[C@@H](C)CN1Cc1ccc(F)cc1 (racemic) [Compound 5.13, (E)-(trans)-3-Benzo[2,1,3]oxadiazol-5-yl-1-[4-(4-fluoro-benzyl)-2,5-dimethyl-piperazine-1-yl]-prop-2-en-1-one] | 12 | 43 | 2.3 | 58.3 | 29 |
| COc1cc(/C=C/C(=O)N2C[C@@H](C)N(Cc3ccc(F)cc3)C[C@@H]2C)cc(OC)c1OC (racemic) [Compound 5.19, (E)-(trans)-1-[4-(4-Fluoro-benzyl)-2,5-dimethyl-piperazine-1-yl]-3-(3,4,5-trimethoxy-phenyl)-prop-2-en-1-one] | 8 | 17 |  |  |  |
| C[C@@H]1CN(C(=O)/C=C/c2cc(Cl)c3nsnc3c2)[C@@H](C)CN1Cc1ccc(F)cc1 (racemic) [Compound 5.46, (E)-(trans)-3-(4-Chloro-benzo[2,1,3]thiadiazol-6-yl)-1-[4-(4-fluorobenzyl)-2,5-dimethyl-piperazine-1-yl]-prop-2-en-1-one] | 7 |  |  |  |  |
| O=C(/C=C/c1ccc(Cl)cc1)N1CCN(Cc2ccc(F)cc2)CC1 [B, 3-(4-chloro-phenyl)-1-[4-(4-fluoro-benzyl)-piperazine-1-yl]-prop-2-en-1-one, reference compound] | 63 | 235 |  |  |  |
| O=C(/C=C\c1ccc(Cl)cc1)N1CCN(Cc2ccc(F)cc2)CC1 [Compound 8.2, (Z)-3-(4-Chloro-phenyl)-1-[4-(4-fluoro-benzyl)-piperazine-1-yl]-prop-2-en-1-one, reference compound] | > 1000 | > 1000 |  |  |  |
| COc1cc(/C=C/C(=O)N2CCN(Cc3ccc(F)cc3)CC2)cc(OC)c1OC [Compound A, 1-[4-(4-Fluoro-benzyl)-piperazine-1-yl]-3-(3,4,5-trimethoxy-phenyl)-prop-2-en-1-one, reference compound] | 110 | 565 |  |  |  |
| O=C(/C=C/c1ccc(Cl)cc1Cl)N1CCN(Cc2ccc(Cl)cc2)CC1 [Compound C, 1-(4-chlorobenzyl)-4-(2,4-dichlorocinnamoyl)-piperazine, reference compound] | 120 |  |  |  |  |
| C[C@@H]1CN(Cc2ccc(F)cc2)C[C@H](C)N1C(=O)/C=C/c1ccc(Cl)cc1 [F, reference compound] | 416 | > 1000 |  |  |  |

From patent US20050192289A1, “Novel cinnamic amides” (Active Biotech AB, priority 2004, published 2005)
